According to patent US20150030540A1 (Eli Lilly and Company, priority 2008, published 2015):
Read-outs that look alike come from different tables or passages of the source.

Key:
Aβ fibrils = target: T1, Aβ fibrils (Homo sapiens, UniProt P05067); conditions: read-out: Binding Affinity Ki; cited from earlier work
T1 construct: Aβ monomer

[1] = target: oligomers/polymers (Aβ1-42) (Homo sapiens, UniProt P05067); experiment: Biacore assay, Aβ42 oligomers/soluble polymers; type: binding; set-up: key: A “+” sign represents a hit; ++: the increase in “+” signs relates to increasing binding affinity; +++: the increase in “+” signs relates to increasing binding affinity; A “−”sign represents no binding; conditions: 10 uM
Sequence of oligomers/polymers (Aβ1-42) (P05067 672-713 limits assumed): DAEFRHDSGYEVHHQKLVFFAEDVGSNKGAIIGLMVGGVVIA
Experimental: β-Amyloid (Aβ42) Soluble Aggregates (Oligomers/Soluble Polymers). Biotin-LC-Aβ42 was mixed with Aβ42 at a ratio of 3:2. After dissolving in 1% NH4OH and dH2O, the mixture (40 uM concentration) was incubated in 1×PBS (pH 7.4) buffer at RT for 6-hours to form oligomers/soluble polymers. The free monomer of Aβ42 in the sample was removed using a Microcon centrifugal filter tube with a 10 KDa of MW cutoff. The Biotin-LC-Aβ42 oligomers/polymers were immobilized onto SA chip by streptavidin-biotin capture. Screening of Amyloid Binding Compounds with Biacore (Surface Plasmon Resonance Analysis). Aβ42 oligomers/soluble polymers or fibrils were immobilized on Flow Cell 2 (Fc2) or Flow Cell 3 (Fc3) of the Sensor Chip, with Fc1 serving as the control. […] The Flow Cells were then washed with running buffer (1×PBS) for 2 minute, and regenerated with 50 mM of NaOH for 30 seconds. The real time interaction between the screening compound and the amyloid aggregates immobilized on the chip surface was recorded in the sensorgram.

fibrils (Aβ1-42) = fibrils (Aβ1-42) (Homo sapiens, UniProt P05067); experiment: Biacore assay, Aβ42 fibrils; type: binding; set-up: key: A “+” sign represents a hit; ++: the increase in “+” signs relates to increasing binding affinity; +++: the increase in “+” signs relates to increasing binding affinity; A “−”sign represents no binding; conditions: 10 uM
Sequence of fibrils (Aβ1-42) (P05067 672-713 limits assumed): as above
Experimental: β-Amyloid (Aβ42) Insoluble Aggregates (Fibrils). Fibrils were prepared according to methods published previously ([…] et al. 2001). Briefly, 0.5 mg of Aβ42 (Biotin-LC-Aβ42:Aβ42=1:1) was dissolved in 1 ml of PBS, pH 7.4, and mixed with a magnetic stir bar for 3 d at 37° C., resulting in a visibly cloudy solution. The fibril pellet was collected by centrifugation. The Biotin-LC-Aβ42 fibrils were immobilized onto SA chip by streptavidin-biotin capture. Screening of Amyloid Binding Compounds with Biacore (Surface Plasmon Resonance Analysis). Aβ42 oligomers/soluble polymers or fibrils were immobilized on Flow Cell 2 (Fc2) or Flow Cell 3 (Fc3) of the Sensor Chip, with Fc1 serving as the control. […] The Flow Cells were then washed with running buffer (1×PBS) for 2 minute, and regenerated with 50 mM of NaOH for 30 seconds. The real time interaction between the screening compound and the amyloid aggregates immobilized on the chip surface was recorded in the sensorgram.

Aβ monomer = target: T2, Aβ monomer (Homo sapiens, UniProt P05067); conditions: read-out: Binding Affinity IC50; cited from earlier work
T2 construct: Aβ monomer
T2 sequence (P05067 672-713 limits assumed): as above

[2] = Grey to white matter binding, autoradiography of AD patient brain slices; set-up: species or system human; conditions: for Grey/white matter binding ratio using mild wash conditions: mild wash: 30%/40%/20% EtOH:water
Experimental: A study was conducted to examine the grey to white matter binding ratios for 4 different tracers: CB-001, CB-003, FDDNP and F-PiB (FIG. 7 and FIG. 8 of U.S. Ser. No. 12/372,717). […] After the human brain slices from AD patients were incubated with a given tracer for 30 min, the slices were washed with various EtOH:water solutions in an attempt to optimize the grey to white matter ratios (FIG. 9 of U.S. Ser. No. 12/372,717). The results were surprising and unexpected in view of previous work performed by other researchers. CB-001 has a slightly higher c Log P than FDDNP (3.8 vs 3.4) and would be expected to have poorer washout than FDDNP based on these values. […] More specifically, the white matter binding of FDDNP is several shades darker than CB-001's white matter binding, indicating low non-specific binding of CB-001.

[3] = microPET imaging of AD-CB-001 in rat; type: in vivo, Sprague-Dawley rat; conditions: tail vein, 30 min dynamic microPET scan
Experimental: A white Sprague-Dawley rat was injected via tail vein with ˜850 uCi AD-CB-001, formulated in 10% EtOH:water. A dynamic scan was conducted for 30 min on a R4 microPET scanner. The data was reconstructed using 1 min framing.

amyloid binding pockets = experiment: Blocking of [18F]-CB001 autoradiography staining
tau/Ab = experiment: selectivity (tau/Ab); type: binding
Description: (§1) Furthermore, the selectivity can be evaluated in brains containing only Aβ plaques/no tau aggregates, Aβ plaques/and tau aggregates, and control brains. Unfortunately, there are no AD brains with only tau and no Aβ present. By testing radiolabeled tracers in these brain sections, one can more quantitative evaluate the relative binding strength (signal strength) and selectivity of various test compounds as they all contain the same radioactive tracer. For examples, if a test tracer binds only to tau, and not amyloid, it should show no signal in the Aβ plaques only brain sections. If a compound binds only to amyloid, it should show uptake in both types of brains. The difficulty of identifying and further quantifying selective compounds lies in the relative abundance of amyloid vs. tau, which is difficult to measure.

MAO-A = target: T3, MAO-A (Homo sapiens, UniProt P21397); experiment: MAO inhibition, MAO-A; type: biochemical
T3 sequence (P21397 1-527): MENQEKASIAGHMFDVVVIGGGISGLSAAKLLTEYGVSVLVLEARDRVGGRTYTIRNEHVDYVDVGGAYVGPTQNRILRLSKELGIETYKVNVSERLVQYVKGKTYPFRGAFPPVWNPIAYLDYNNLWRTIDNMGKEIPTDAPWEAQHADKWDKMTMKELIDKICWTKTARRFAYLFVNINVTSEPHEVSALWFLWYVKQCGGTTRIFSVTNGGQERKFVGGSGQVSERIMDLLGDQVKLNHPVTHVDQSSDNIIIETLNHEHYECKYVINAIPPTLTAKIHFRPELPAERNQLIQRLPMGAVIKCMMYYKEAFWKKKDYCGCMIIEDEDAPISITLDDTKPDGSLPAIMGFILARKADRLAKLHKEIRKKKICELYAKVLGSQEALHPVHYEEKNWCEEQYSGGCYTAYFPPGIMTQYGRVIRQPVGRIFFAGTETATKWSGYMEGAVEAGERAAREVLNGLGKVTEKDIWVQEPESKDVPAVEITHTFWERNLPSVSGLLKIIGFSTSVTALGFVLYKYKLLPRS

[4] = background in normal brain; type: binding
Description: as §1

CNS selectivity panel = CNS selectivity panel (hits); type: binding
[5] = Brain uptake in rats and mice; type: in vivo
[6] = GM Intensity (comp. with W372); type: binding; conditions: compared with W372
MAO-B = target: T4, MAO-B (Homo sapiens, UniProt P27338); experiment: MAO inhibition, MAO-B; type: biochemical
T4 sequence (P27338 1-520): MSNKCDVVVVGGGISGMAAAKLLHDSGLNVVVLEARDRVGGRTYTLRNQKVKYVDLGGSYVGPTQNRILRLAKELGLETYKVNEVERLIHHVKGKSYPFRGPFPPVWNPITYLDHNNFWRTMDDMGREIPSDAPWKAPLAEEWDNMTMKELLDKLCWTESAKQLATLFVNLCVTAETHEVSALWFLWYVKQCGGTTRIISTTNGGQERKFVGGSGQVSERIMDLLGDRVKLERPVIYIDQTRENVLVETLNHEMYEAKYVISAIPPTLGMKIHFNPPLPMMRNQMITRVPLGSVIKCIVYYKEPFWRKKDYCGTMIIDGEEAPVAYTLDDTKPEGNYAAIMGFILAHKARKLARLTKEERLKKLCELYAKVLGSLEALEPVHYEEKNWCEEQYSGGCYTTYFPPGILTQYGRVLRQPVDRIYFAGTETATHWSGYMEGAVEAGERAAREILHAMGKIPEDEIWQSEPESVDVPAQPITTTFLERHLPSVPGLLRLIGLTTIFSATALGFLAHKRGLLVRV

AchE = AchE (Homo sapiens, UniProt P22303); experiment: AchE activity (IC50); type: biochemical
Sequence of AchE (P22303 32-614): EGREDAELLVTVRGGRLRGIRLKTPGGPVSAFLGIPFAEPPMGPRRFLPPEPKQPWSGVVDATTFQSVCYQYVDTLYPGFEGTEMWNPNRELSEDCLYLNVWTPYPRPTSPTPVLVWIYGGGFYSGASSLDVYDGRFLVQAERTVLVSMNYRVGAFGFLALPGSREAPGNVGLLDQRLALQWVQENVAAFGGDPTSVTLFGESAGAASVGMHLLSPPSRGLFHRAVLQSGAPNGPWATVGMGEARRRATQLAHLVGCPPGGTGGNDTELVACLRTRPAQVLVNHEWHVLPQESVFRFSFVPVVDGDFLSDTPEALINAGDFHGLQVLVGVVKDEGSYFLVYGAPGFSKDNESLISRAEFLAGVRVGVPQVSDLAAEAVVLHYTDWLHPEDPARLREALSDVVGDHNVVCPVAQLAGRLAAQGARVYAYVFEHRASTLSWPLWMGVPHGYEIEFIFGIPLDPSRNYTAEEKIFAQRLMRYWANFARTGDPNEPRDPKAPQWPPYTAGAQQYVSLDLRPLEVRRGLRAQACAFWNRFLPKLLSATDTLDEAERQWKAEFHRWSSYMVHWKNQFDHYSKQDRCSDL

tau = target: T5, tau (Homo sapiens, UniProt P10636); experiment: KD (tau) binding; conditions: read-out: KD (tau)
T5 construct: Native forms of tau (various isoforms, hyperphosphorylated) and amyloid aggregates are present in brain sections and therefore preferred for compound testing
T5 sequence (P10636 623-758 limits assumed): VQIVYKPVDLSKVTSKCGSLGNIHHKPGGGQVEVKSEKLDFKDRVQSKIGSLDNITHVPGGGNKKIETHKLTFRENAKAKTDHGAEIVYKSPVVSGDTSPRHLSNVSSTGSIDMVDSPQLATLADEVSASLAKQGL
Description: (§2) When injected intravenously into mice, the Carbazole based compounds; in particular T807, T805 and T794 have shown excellent brain uptake. These compounds also display high binding affinity to tau fibrils. […] In neuropathological staining, compounds of the present invention stained amyloid plaques and/or tau aggregates.
as §1

[7] = Brain uptake after intravenous injection into mice; type: in vivo; conditions: injected intravenously into mice
Description: as §2

tau/amyloid = experiment: Tx/tau/amyloid correlation; type: binding
human hepatocytes = experiment: Metabolism in human hepatocytes; type: in vitro ADME
[8] = target: Amyloid (AD Patient's Brain Slice) (Homo sapiens, UniProt P05067); experiment: IC50 determination with [18F]-PiB by ex vivo competition assay using autoradiography staining; type: binding
Sequence of Amyloid (AD Patient's Brain Slice) (P05067 672-711 limits assumed): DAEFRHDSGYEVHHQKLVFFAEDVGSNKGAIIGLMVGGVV
Description: Ex Vivo Competition Assay Using Amyloid (AD Patient's Brain Slice) Autoradiography Staining

T1 sequence (P05067 672-713 limits assumed): as the sequence (P05067 672-713 limits assumed) above

Molecule: [11CH3]Nc1ccc(-c2cc3ccc(O)cc3o2)cc1
- Ki (Aβ fibrils): 0.0028 µM

Molecule: Oc1ccc2c(c1)[nH]c1ccccc12 [2-Hydroxycarbazole]
- Binding to oligomers/polymers (Aβ1-42) [1]: +++
- Binding to fibrils (Aβ1-42) (fibrils (Aβ1-42)): +

Molecule: O=S(=O)(O)c1cccc2cccc(Nc3ccccc3)c12 [ANS]
- IC50 (Aβ monomer): > 100 µM

Molecule: FCCOc1ccc2c(c1)[nH]c1ccccc12 [CB-001, 2-(2-fluoroethoxy)-9H-carbazole]
- non-specific binding propensity ([2]; compared to FDDNP): lower
- Grey/white matter binding ratio using harsh FDDNP wash conditions ([2]; harsh FDDNP wash: 70%/90%/70% EtOH:water): Excellent
- Grey/white matter binding ratio using mild wash conditions [2]: Poor
- grey to white matter ratio ([2]; original wash, text b480): much better
- brain entry and washout [3]: entered the rat brain and quickly washed out

Molecule: FCCOCCOCCOc1ccc2c(c1)[nH]c1ccccc12 [CB-003, 2-(2-(2-(2-fluoroethoxy)ethoxy)ethoxy)-9H-carbazole]
- differentiation of healthy and AD brain ([2]; mild wash protocol): clearly differentiate between a healthy brain and an AD brain
- Grey/white matter binding ratio using mild wash conditions [2]: Excellent
- grey to white matter binding ratios ([2]; milder washing conditions, text b481): excellent

Molecule: Nc1c(/N=N/c2ccc(-c3ccc(/N=N/c4cc(S(=O)(=O)O)c5ccccc5c4N)cc3)cc2)cc(S(=O)(=O)O)c2ccccc12 [Congo Red]
- IC50 (Aβ monomer): 2 to 10 µM

Molecule: COc1cc(/C=C/C(=O)/C=C(O)/C=C/c2ccc(O)c(OC)c2)ccc1O [Curcumin]
- IC50 (Aβ monomer): 10 to 20 µM

Molecule: CC(=C(C#N)C#N)c1ccc2cc(N(C)CCF)ccc2c1 [FDDNP]
- blocking of [18F]-CB001 staining (amyloid binding pockets): much less capable of blocking

Molecule: CNc1ccc(-c2nc3ccc(O)cc3s2)cc1 [PiB]
- blocking of [18F]-CB001 staining (amyloid binding pockets): blocks [18F]-CB001 staining with increasing concentrations

Molecule: Cc1cnc2c(c1)[nH]c1cc(OCCF)ccc12 [T703, 7-(2-fluoroethoxy)-3-methyl-5H-pyrido[3,2-b]indole]
- selectivity (tau/Ab) (tau/Ab): 16x
- inhibition at 1 µM (MAO-A): 16%
- background (normal brain 32566) PSL/mm2 [4]: 15 PSL/mm2
- CNS selectivity panel (targets named) (CNS selectivity panel): NET, σl
- Brain uptake [5]: Yes
- GM Intensity (comp. with W372) [6]: 6%
- inhibition at 1 µM (MAO-B): 0%

Molecule: FCCc1ccc2c(c1)[nH]c1ccncc12 [T805, 7-(2-Fluoroethyl)-5H-pyrido[4,3-b]indole]
- selectivity (tau/Ab) (tau/Ab): 14x
- inhibition at 1 µM (MAO-A): 0%
- AchE activity, effect at 10 uM (AchE; at 10 uM): <50% at 10 uM
- background (normal brain 32566) PSL/mm2 [4]: 49 PSL/mm2
- Brain uptake [5]: yes (2 rats, 2 mice)
- GM Intensity (comp. with W372) [6]: 8%
- inhibition at 1 µM (MAO-B): 0%
- Kd (tau): 0.032 µM
- Brain uptake [7]: excellent

Molecule: Fc1ccc(-c2ccc3c(c2)[nH]c2ccncc23)cn1 [T807, 7-(6-Fluoropyridine-3-yl)-5H-pyrido[4,3-b]indole]
- selectivity (tau/Ab) (tau/Ab): 29x
- inhibition at 1 µM (MAO-A): 0%
- Tx/tau/amyloid correlation (tau/amyloid): yes
- IC50 (AchE): 6 µM
- background (normal brain 32566) PSL/mm2 [4]: 61 PSL/mm2
- human hepatocytes (metabolic stability) (human hepatocytes): somewhat stable
- Brain uptake [5]: yes (3 rats, 3 mice)
- GM Intensity (comp. with W372) [6]: 28%
- inhibition at 1 µM (MAO-B): 0%
- Kd (tau): 0.015 µM
- Brain uptake [7]: excellent

Molecule: F-PiB
- overall signal [2]: very weak
- IC50 ([8]; average of determinations, read-out: Average IC50): 0.045 µM
- IC50 ([8]; determination 9, read-out: IC50 9): 0.04 µM
- IC50 ([8]; determination 10, read-out: IC50 10): 0.05 µM
- IC50 ([8]; determination 11, read-out: IC50 11): 0.055 µM
- IC50 ([8]; determination 12, read-out: IC50 12): 0.041 µM

Molecule: Harmol
- Binding to oligomers/polymers (Aβ1-42) [1]: ++
- Binding to fibrils (Aβ1-42) (fibrils (Aβ1-42)): +
